Earlier results as cited in patent US20020002154A1, “METHOD AND COMPOSITION FOR TREATMENT OF INFLAMMATORY CONDITIONS” (priority 1998, published 2002).

System: acute phase of Crohn's Disease (CD)

## CCCC1O[C@@H]2C[C@H]3[C@@H]4CCC5=CC(=O)C=C[C@]5(C)[C@H]4[C@@H](O)C[C@]3(C)[C@]2(C(=O)CO)O1 (stereo partly shown) [budesonide]
  side-effects compared to prednisone: fewer side-effects
